Measured values reported in PubChem BioAssay AID1117361 (Southern Research Institute, 2015).

Target: Protein Tat (Human immunodeficiency virus type 1 group M subtype B (isolate HXB2)) (UniProt P04608)
Assay: HIV-1 Tat–TAR interaction blockers – biochemical, fluorescence polarization, FAM-labeled TAR RNA, counter-screen for Vif-APOBEC3G degradation inhibitor project, dose response (AID 1117361)
Details: Tat-TAR RNA binding

Sequence of Protein Tat (Human immunodeficiency virus type 1 group M subtype B (isolate HXB2)) (P04608 whole entry, looked up): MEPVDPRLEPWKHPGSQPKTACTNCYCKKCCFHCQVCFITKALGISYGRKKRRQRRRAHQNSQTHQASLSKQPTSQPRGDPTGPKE

| SMILES | IC50 [µM] |
| --- | --- |
| O=[N+]([O-])c1ccc(N/N=C/c2ccc(O)c(O)c2O)c(S(=O)(=O)N2CCOCC2)c1 | 34 |
| Cc1ccc(C2SCC(=O)N2Cc2cn3ccsc3n2)o1 (centres undefined) | 68.5 |
| Cc1ccc(N(CC(=O)NCCSCc2ccco2)S(=O)(=O)c2ccc(F)cc2)cc1 | 63.7 |
| Cc1cccc(NC2=Nc3ccccc3N3C2=Nc2c(c(C)nn2-c2ccccc2)C3c2ccc(O)c(O)c2)c1 (centres undefined) | 43 |
| Cc1ccc(NC(=O)CN2C(=O)N/C(=C/c3ccco3)C2=O)cc1 | 36 |
| CCOc1cccc(=O)c2c(C)oc(C)c12 | 22.6 |
| CN1CCC(N(C)C(=O)COc2ccccc2-c2ccccc2)CC1 | 63.7 |
| S=c1[nH]nc(C2CC2)n1Cc1ccco1 | 45.9 |
| C=C(C)C(=O)Nc1cccc(C2=NOC3(C2)C[C@@H](C(N)=O)N(C(=O)CC(c2ccccc2)c2ccccc2)C3)c1 (some centres undefined) | 29.3 |
| COc1cc(NCCCCCCN)c2ncccc2c1OC | 56.7 |
| COCCCNC(=O)/C(C#N)=C/c1ccc(OCC(=O)O)c(OC)c1 | 34.4 |
| Cc1cc(=O)c2c(O)c(O)ccc2o1 | 47.4 |
| CCc1c(C)sc(NC(=O)OC)c1C(=O)N1CCCCC1 | 30.2 |
| O=C1NN(c2ccc(Cl)cc2)C(=O)/C1=C\c1ccc(-c2cccc(C(=O)O)c2)o1 | 23.4 |
| Cc1ccc(C)c2[nH]c(=O)c(CN(Cc3ccc4c(c3)OCO4)Cc3nnnn3Cc3ccco3)cc12 | 39.6 |
| O=C1CC(c2ccco2)CC(O)=C1C=Nc1cc(Cl)ccc1O (centres undefined) | 20.5 |
| C=CCN1C(=O)/C(=C\c2ccco2)C(C(=O)OC)=C1C | 45.9 |
| CN1CCN(C2=C(Cl)C(=O)c3ccccc3C2=O)CC1 | 40 |
| COC(=O)C1C(O)C(C)C(O)C(C)(O)/C=C\C=C(/C)C(=O)Nc2c(C)c(OC(C)=O)c3c(c2O)C(=O)C(C)=C2OCOC(=C23)/C(C)=C/C(C)(O)C(O)C(C)C1O (centres undefined) | 54.6 |
| CN(C)c1cc(Cl)c2nonc2c1N | 87.2 |
| Cc1nn(-c2ccccc2)c2sc(C(=O)N3CCc4ccccc4C3)cc12 | 40.1 |
| Cc1ccc(C)n1-c1ccc(-c2nnc3n2CCCCC3)s1 | 54.2 |
| CC(=O)OC1COC(n2ccc3ccccc32)C(OC(C)=O)C1OC(C)=O (centres undefined) | 88.1 |
| Cc1ccc(S(=O)(=O)OCC(=O)Nc2ccc(C(=O)O)c(O)c2)cc1 | 75.3 |
| CC1=NN(C(N)=S)C(=O)C1N=Nc1cccc([N+](=O)[O-])c1 (centres undefined) | 99.2 |

Compounds with a lower IC50, results first:

| IC50 [µM] | SMILES |
| --- | --- |
| 6.93 | Cc1noc(/C=C/c2ccco2)c1S(=O)(=O)N1CCC(C(=O)NCc2ccco2)CC1 |
| 11.1 | COC(=O)CCC(=O)OC1(C)C(=O)C=C2C=C3CCCN3C=C2C1=O (centres undefined) |
| 2.15 | COc1ccc(NC(=O)c2cccc(S(=O)(=O)Nc3ccc(Br)cc3)c2)cn1 |
| 15.8 | O=[N+]([O-])c1cc(CN2CCOCC2)c2cccnc2c1O |
| 1.92 | CCCN1C(=O)S/C(=C\c2ccc(N3CCOCC3)cc2C)C1=O |
| 3.58 | O=C(NCCCO)c1ccc2nc(-c3ccco3)c(-c3ccco3)nc2c1 |
| 11.7 | Oc1cc2c(cc1O)C1c3ccc(O)c(O)c3OCC1(O)C2 (centres undefined) |
| 0.996 | CCOC(=O)c1ccc(NS(=O)(=O)c2ccc3c(c2)oc(=O)n3C)cc1 |
| 15 | Cc1cccc2cc(-c3ccccc3)c(-c3ccccc3)c[n+]12 |
| 2.07 | Cc1ccc(C)n1-c1cccc(C(=O)O)c1 |
| 11.9 | Cc1ccc(N/N=C/c2c(C)c(C#N)c(=O)n(C)c2O)cc1C |
| 4.06 | CC1=C(C(=O)Nc2ccccc2F)C(c2ccsc2)C2=C(CC(c3ccccc3)CC2=O)N1 (centres undefined) |
| 12.6 | CCC1C/C(=C/c2ccco2)C(=O)/C(=C/c2ccco2)C1 (centres undefined) |
| 14.6 | O=C(COc1ccccc1Cl)c1ccc[nH]1 |
| 6.84 | CCCCNC(=O)c1ccc2nc(-c3ccco3)c(-c3ccco3)nc2c1 |
| 2.22 | CNc1ccccc(-c2ccc3cc4c(cc3n2)OCO4)c1=O |
| 15 | O=C(N/N=C/c1cn(Cc2cccc(F)c2)c2ccccc12)c1cc(O)cc(O)c1 |
| 16 | Cc1ccc(/C=C/C(=O)Nc2ncc(C)s2)o1 |
| 9.42 | CSc1nc(NCCOCCO)c2sc3nc(-c4ccco4)c4c(c3c2n1)CCC4 |
| 6.08 | Cc1nc2ncccn2c1-c1csc(NCc2ccco2)n1 |
| 7.85 | CCOC(=O)C1=C(N)n2c(s/c(=C\c3ccco3)c2=O)=C(C(=O)OCC)C1c1ccco1 (centres undefined) |
| 15.1 | COc1ccc(-c2cc(-c3ccco3)[nH]c(=O)c2C#N)cc1 |
| 5.76 | C=C(C)C(=O)Nc1cccc(C2=NOC3(C2)C[C@@H](C(N)=O)N(C(=O)CCCCC)C3)c1 (some centres undefined) |
| 6.51 | Cc1c2ccccc2nc2c(F)c(N(C)C)c(F)c(F)c12 |
| 2.81 | C[c-]1[c-](C)[c-](C)[c-](C)[c-]1C.[Fe].c1cc2nccc(N3CCCC3)[c-]2c1 (centres undefined) |
| 11.1 | O=[n+]1c2c(n([O-])c3cc(F)c(F)cc31)CCCC2 |
| 4.79 | CC1CCN(Cc2c(O)ccc3c2O/C(=C\c2ccco2)C3=O)CC1 |
| 14.9 | CCC1S/C(=C(\C#N)C(=O)NCc2ccco2)N(c2ccc(F)cc2)C1=O (centres undefined) |
| 7.2 | Cc1ccc(/C=C/C(=O)Nc2ccc([N+](=O)[O-])c(NC(=O)/C=C/c3ccc(C)o3)c2)o1 |
